Source: ChEMBL document CHEMBL1240454, “1,3-Dioxolane-based ligands incorporating a lactam or imide moiety: structure-affinity/activity relationship at alpha1-adrenoceptor subtypes and at 5-HT1A receptors” (Eur J Med Chem, 2010)

Legend:
[1] = target: T1, Alpha-1B adrenergic receptor (Rattus norvegicus) (UniProt P15823); experiment: Antagonist activity at adrenergic Alpha-1B receptor in Wistar rat spleen assessed as inhibition of […]-induced tissue contraction treated 30 mins before […] challenge; format: functional, tissue-based
T1 sequence (whole entry): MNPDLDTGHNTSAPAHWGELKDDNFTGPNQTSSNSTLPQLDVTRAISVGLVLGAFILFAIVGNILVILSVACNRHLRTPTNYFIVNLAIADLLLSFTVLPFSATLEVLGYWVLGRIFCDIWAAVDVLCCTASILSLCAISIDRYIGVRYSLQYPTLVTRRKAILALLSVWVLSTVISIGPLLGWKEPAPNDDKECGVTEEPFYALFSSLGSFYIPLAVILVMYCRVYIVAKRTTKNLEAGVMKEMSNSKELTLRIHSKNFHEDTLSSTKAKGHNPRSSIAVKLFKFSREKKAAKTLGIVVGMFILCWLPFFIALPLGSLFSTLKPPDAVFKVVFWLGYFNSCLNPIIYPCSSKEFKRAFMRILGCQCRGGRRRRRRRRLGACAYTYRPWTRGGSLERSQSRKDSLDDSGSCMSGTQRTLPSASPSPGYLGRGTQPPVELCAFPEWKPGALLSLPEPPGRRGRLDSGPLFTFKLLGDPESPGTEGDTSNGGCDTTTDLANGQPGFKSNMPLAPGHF

[2] = species on record: Rattus norvegicus; experiment: Selectivity for adrenergic Alpha-1B receptor in Wistar rat spleen over adrenergic alpha1A receptor in Wistar rat prostatic vas deferens; format: tissue-based
[3] = species on record: Rattus norvegicus; experiment: Selectivity for adrenergic alpha1A receptor in Wistar rat prostatic vas deferens over adrenergic Alpha-1D receptor in Wistar rat thoracic aorta; format: tissue-based
[4] = target: T2, 5-hydroxytryptamine receptor 1A (Homo sapiens) (UniProt P08908); experiment: Agonist activity at human cloned 5HT1A receptor expressed in human HeLa cells assessed as stimulation of [35S]GTPgammaS binding after 20 mins by liquid scintillation counting; format: functional, cell-based
T2 sequence (whole entry): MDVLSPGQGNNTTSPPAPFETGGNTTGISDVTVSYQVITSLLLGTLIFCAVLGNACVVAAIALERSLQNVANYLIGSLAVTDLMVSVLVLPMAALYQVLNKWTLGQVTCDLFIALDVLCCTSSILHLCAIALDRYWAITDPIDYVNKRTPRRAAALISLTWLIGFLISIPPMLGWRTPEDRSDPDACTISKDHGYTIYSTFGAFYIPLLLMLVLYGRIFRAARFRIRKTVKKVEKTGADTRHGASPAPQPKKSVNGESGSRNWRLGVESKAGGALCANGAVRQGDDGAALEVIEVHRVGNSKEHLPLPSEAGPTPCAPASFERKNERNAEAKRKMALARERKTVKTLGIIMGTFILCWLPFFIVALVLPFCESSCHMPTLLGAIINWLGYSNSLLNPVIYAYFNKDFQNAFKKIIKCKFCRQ

[5] = target: T2, 5-hydroxytryptamine receptor 1A (Homo sapiens); experiment: Agonist activity at human cloned 5HT1A receptor expressed in human HeLa cells assessed as stimulation of [35S]GTPgammaS binding after 20 mins by liquid scintillation counting relative to maximal 5HT response; format: functional, cell-based
[6] = target: T3, 5-hydroxytryptamine receptor 1A (Homo sapiens, UniProt P08908); experiment: Binding affinity to 5HT1A receptor
T3 sequence (P08908 whole entry): T2 sequence (whole entry)

[7] = Selectivity for adrenergic alpha1 receptor over 5HT1A receptor
[8] = target: T4, Alpha-1B adrenergic receptor (Homo sapiens, UniProt P35368)
T4 sequence (P35368 whole entry): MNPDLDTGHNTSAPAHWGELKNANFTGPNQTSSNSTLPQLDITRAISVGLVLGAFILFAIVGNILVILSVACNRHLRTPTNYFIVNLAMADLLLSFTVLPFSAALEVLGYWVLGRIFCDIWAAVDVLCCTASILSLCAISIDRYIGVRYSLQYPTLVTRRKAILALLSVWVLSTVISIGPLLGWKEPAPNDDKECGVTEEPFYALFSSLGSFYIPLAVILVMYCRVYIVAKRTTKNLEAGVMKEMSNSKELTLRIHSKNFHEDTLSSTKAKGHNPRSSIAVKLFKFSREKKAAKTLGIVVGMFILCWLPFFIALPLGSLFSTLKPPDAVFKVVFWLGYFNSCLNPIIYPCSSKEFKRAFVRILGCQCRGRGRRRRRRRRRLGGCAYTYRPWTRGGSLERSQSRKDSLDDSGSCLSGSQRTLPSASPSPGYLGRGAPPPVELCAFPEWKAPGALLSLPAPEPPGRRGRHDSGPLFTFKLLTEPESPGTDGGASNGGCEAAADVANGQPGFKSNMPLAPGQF
Description: Displacement [3H]prazosin of human recombinant Alpha-1B adrenergic receptor expressed in CHO cells by rapid filtration technique

[9] = target: T2, 5-hydroxytryptamine receptor 1A (Homo sapiens); settings: HeLa

SMILES | pKb [1] | Selectivity ratio [2] | pD2 [4] | Emax [5] | Ki [6] | Selectivity ratio [7] | Ki [8] | pKb [9] | Selectivity ratio [3]
COc1ccccc1N1CCN(C[C@H]2CO[C@@](CN3CCCCC3=O)(c3ccccc3)O2)CC1 | 7.93 | 0.3 |  |  |  |  | 129 nM | 7.38 | 0.3
COc1ccccc1N1CCN(C[C@H]2CO[C@](CN3CCCC3=O)(c3ccccc3)O2)CC1 (relative stereo) | 8.29 | 0.5 |  |  |  |  | 174 nM | 7.16 | 0.07
COc1ccccc1N1CCN(C[C@H]2CO[C@@](CN3CCCCCC3=O)(c3ccccc3)O2)CC1 (relative stereo) | 8.42 | 4 |  |  |  |  | 72.4 nM | 7.25 | 0.04
COc1ccccc1N1CCN(C[C@H]2CO[C@@](CN3C(=O)CCC3=O)(c3ccccc3)O2)CC1 (relative stereo) | 7.04 | 3 | 7.05 | 45% |  |  | 85.1 nM |  | 0.1
COc1ccccc1N1CCN(C[C@@H]2CO[C@@](CN3C(=O)CCC3=O)(c3ccccc3)O2)CC1 (relative stereo) | 7.11 | 2 |  |  |  |  | 224 nM |  | 3
COc1ccccc1N1CCN(C[C@@H]2CO[C@@](CN3C(=O)CCCC3=O)(c3ccccc3)O2)CC1 (relative stereo) | 7.35 | 1 |  |  |  |  | 132 nM |  | 2

The remaining molecules from weak to strong by Ki [8], led by results:

pKb [1] | Selectivity ratio [2] | pD2 [4] | Emax [5] | Ki [6] | Selectivity ratio [7] | Ki [8] | pKb [9] | SMILES | Selectivity ratio [3]
8.17 | 0.2 | 7.14 | 34% |  |  | 70.8 nM |  | COc1ccccc1N1CCN(C[C@@H]2CO[C@](CN3CCCC3=O)(c3ccccc3)O2)CC1 (relative stereo) | 1
8.3 | 0.1 |  |  |  |  | 51.3 nM | 7.39 | COc1ccccc1N1CCN(C[C@@H]2CO[C@@](CN3CCCCC3=O)(c3ccccc3)O2)CC1 (relative stereo) | 1
7.12 | 1 | 7.23 | 34% |  |  | 46.8 nM |  | COc1ccccc1N1CCN(C[C@H]2CO[C@@](CN3C(=O)CCCC3=O)(c3ccccc3)O2)CC1 (relative stereo) | 0.1
8.08 | 0.1 | 6.57 | 39% |  |  | 18.2 nM |  | COc1ccccc1N1CCN(C[C@@H]2CO[C@@](CN3CCCCCC3=O)(c3ccccc3)O2)CC1 (relative stereo) | 4
7.47 | 0.7 | 7.98 | 60% |  |  | 10 nM |  | COc1ccccc1N1CCN(C[C@@H]2CO[C@@](CN3C(=O)CC4(CCCC4)CC3=O)(c3ccccc3)O2)CC1 (relative stereo) | 17
7.4 | 3 | 7.8 | 49% |  |  | 9.33 nM |  | COc1ccccc1N1CCN(C[C@H]2CO[C@@](CN3C(=O)CC4(CCCC4)CC3=O)(c3ccccc3)O2)CC1 (relative stereo) | 0.1
6.69 | 36 | 8.3 | 16% | 15.1 nM | 100 | 6.76 nM |  | COc1ccccc1N1CCN(CC2OCC(c3ccccc3)(c3ccccc3)O2)CC1 (configuration not stated) | 0.8
